Results as given in US6500821B1, “4-amino-1-aryl-1,5-dihydropyrrol-2-ones and process for making” (Arzneimittelwerk Dresden GmbH, priority 1999, dated 2002).

How the values were obtained:
[1] = test system: s.c. pentetrazole; assay: Anticonvulsive action, s.c. pentetrazole (PTZ), mouse i.p.; format: in vivo
Experimental: (§1) Compounds according to the present invention were tested in vivo for their anticonvulsive action as shown in Table 1 in mice by i.p. administration, or in rats administered orally according to the internationally customary standard (Pharmac. Weekblad, Sc.Ed. 14 132 (1992) and Antiepileptic Drugs, Third Ed., Raven Press, New York 1989). [table]

[2] = test system: maximal electroshock; assay: Anticonvulsive action, maximal electroshock (MES), mouse i.p.; format: in vivo; conditions: for responders at 100 mg/kg / responders at 300 mg/kg: ip, read-out: Action, % of the protected animals
Experimental: as §1

[3] = test system: Vogel Conflict Test; assay: Vogel Conflict Test; format: in vivo, rat; conditions: for Changed number of impulses to the control in % / dose from which an anxiolytic action was detected / equally effective dose: rat; for dose from which an anxiolytic action was detected / equally effective dose: p.o.
From the text: In this model, continuous access to drinking water is withheld from rats for a certain time. After this period, free access is given to drinking water, but is coupled with a mild electrical stimulation. The conflict for the animals is between accepting the electrical stimulation or going without a drink.
The reactions to a conflict situation of this type are similar to the secondary phenomena of anxiety in man. The resulting avoidance reactions can be suppressed by anxiolytic substances. As a measure of the anxiolytic action, the number of tolerated current pulses of the animals treated with the test substance is assessed in comparison to the vehicle-treated control group.

[4] = Octanol/water partition coefficient; format: physicochemical; conditions: for logP: read-out: log P (octanol/water partition coefficient)
[5] = ip, dose 100 mg/kg, read-out: Action, % of the protected animals
[6] = ip, dose 300 mg/kg, read-out: Action, % of the protected animals

Row | SMILES | responders at 100 mg/kg [1, 5] [%] | responders at 100 mg/kg ([2]; dose 100 mg/kg) [%] | melting point [°C] | responders at 300 mg/kg ([2]; dose 300 mg/kg) [%] | logP [4] | other results
1 | CCCC(CCC)C(=O)O [Valproate, reference compound] | 30 | 0 | – | – | – | –
2 | O=C1C=C(N2CCOCC2)CN1c1ccc(F)cc1 [Compound 3, 1-(4-fluorophenyl)-4-morpholin-4-yl-1,5-dihydropyrrol-2-one] | 33 | 50 | 226 to 229 | – | – | –
3 | CN1CCN=C(c2ccccc2)c2cc(Cl)ccc21 [Medazepam, medazepam] | – | – | – | – | – | anxiolytic action (in words) ([3]; dose range from 0.3 to 3 mg/kg p.o.): not possible to detect; Changed number of impulses to the control in % ([3]; 0.3 mg/kg p.o.): 100%; Changed number of impulses to the control in % ([3]; 1.0 mg/kg p.o.): 131%; Changed number of impulses to the control in % ([3]; 3 mg/kg p.o.): 78%
4 | O=C1C=C(N2CCOCC2)CN1c1ccccc1Cl [Compound 1, 1-(2-chlorophenyl)-4-morpholin-4-yl-1,5-dihydropyrrol-2-one] | 0 | 0 | 154 to 156 | – | – | dose from which an anxiolytic action was detected / equally effective dose [3]: 3 mg/kg
5 | O=C1C=C(N2CCOCC2)CN1c1ccc(C(F)(F)F)cc1 [Compound 8, 4-morpholin-4-yl-1-(4-trifluoromethylphenyl)-1,5-dihydropyrrol-2-one] | 100 | 66 | 205 to 207 | – | – | –
6 | CC1CCCCN1C1=CC(=O)N(c2ccc(Cl)cc2)C1 (stereo not drawn) [Compound 20, 1-(4-chlorophenyl)-4-(2-methylpiperidin-1-yl)-1,5-dihydropyrrol-2-one] | 40 | – | 181 to 185 | 66 | – | –
7 | COc1ccc(N2CC(N3CCOCC3)=CC2=O)cc1 [Compound 7, 1-(4-methoxyphenyl)-4-morpholin-4-yl-1,5-dihydropyrrol-2-one] | – | – | 198 to 202 | 0 | 0.74 | responders at 300 mg/kg [1, 6]: 80%
8 | O=C1C=C(N2CCCCC2)CN1c1ccc(F)cc1 [Compound 13, 1-(4-fluorophenyl)-4-piperidin-1-yl-1,5-dihydropyrrol-2-one] | – | – | 214 to 216 | 0 | 2.35 | responders at 300 mg/kg [1, 6]: 0%
9 | O=C1C=C(N2CCCCCC2)CN1c1ccc(Cl)cc1 [Compound 22, 1-(4-chlorophenyl)-4-azepam-1-yl-1,5-dihydropyrrol-2-one] | – | – | – | – | – | Action, % of the protected animals ([1]; dose 300 mg/kg): 100%; log P (octanol/water partition coefficient) [4]: 3.40; Action, % of the protected animals ([2]; dose 300 mg/kg): 100%
10 | O=C1C=C(N2CCOCC2)CN1c1ccc(OC(F)(F)F)cc1 [Compound 9, 4-morpholin-4-yl-1-(4-trifluoromethoxyphenyl)-1,5-dihydropyrrol-2-one] | – | 100 | 148 to 153 | – | 2.45 | responders at 10 mg/kg ([1]; ip, dose 10 mg/kg, read-out: Action, % of the protected animals): 50%
11 | O=C1C=C(N2CCOCC2)CN1c1ccc(Br)cc1 [Compound 5, 1-(4-bromophenyl)-4-morpholin-4-yl-1,5-dihydropyrrol-2-one] | 100 | 33 | 230 to 233 | – | 2.16 | –
12 | O=C1C=C(N2CCCCC2)CN1c1ccc(Cl)cc1 [Compound 14, 1-(4-chlorophenyl)-4-piperidin-1-yl-1,5-dihydropyrrol-2-one] | 100 | 100 | – | – | 3.06 | –
13 | NC(=O)N1c2ccccc2C=Cc2ccccc21 [Carbamazepin, reference compound] | – | – | – | – | – | Action, % of the protected animals ([1]; dose 100 mg/kg): 0%; Action, % of the protected animals ([2]; dose 100 mg/kg): 100%
14 | CC1CCCN(C2=CC(=O)N(c3ccc(Cl)cc3)C2)C1 (stereo not drawn) [Compound 19, 1-(4-chlorophenyl)-4-(3-methylpiperidin-1-yl)-1,5-dihydropyrrol-2-one] | 40 | – | 188 to 189 | 0 | 3.58 | –
15 | CC1CCN(C2=CC(=O)N(c3ccc(Cl)cc3)C2)CC1 [Compound 18, 1-(4-chlorophenyl)-4-(4-methylpiperidin-1-yl)-1,5-dihydropyrrol-2-one] | 66 | 66 | 194 to 196 | – | – | –
16 | CCN(CC)C1=CC(=O)N(c2ccc(Cl)cc2)C1 [Compound 23, 1-(4-chlorophenyl)-4-(diethylamino)-1,5-dihydropyrrol-2-one] | – | – | 165 to 168 | 50 | – | responders at 300 mg/kg [1, 6]: 66%
17 | CN1CCN(C2=CC(=O)N(c3ccc(Cl)cc3)C2)CC1 [Compound 21, 1-(4-chlorophenyl)-4-(4-methylpiperazin-1-yl)-1,5-dihydropyrrol-2-one] | 100 | 66 | 194 to 197 | – | – | –
18 | O=C1C=C(N2CCOCC2)CN1c1ccc(F)c(Cl)c1 [Compound 10, 1-(3-chloro-4-fluorophenyl)-4-morpholin-4-yl-1,5-dihydropyrrol-2-one] | 100 | 100 | 162 to 166 | – | 2.19 | –
19 | Cc1ccc(N2CC(N3CCOCC3)=CC2=O)cc1 [Compound 6, 1-(4-methylphenyl)-4-morpholin-4-yl-1,5-dihydropyrrol-2-one] | 100 | – | – | 100 | 1.42 | –
20 | O=C1CN=C(c2ccccc2Cl)c2cc([N+](=O)[O-])ccc2N1 [Clonazepam, clonazepam] | – | – | – | – | – | Changed number of impulses to the control in % ([3]; 0.1 mg/kg p.o.): 122%; Changed number of impulses to the control in % ([3]; 0.3 mg/kg p.o.): 128%; Changed number of impulses to the control in % ([3]; 1.0 mg/kg p.o.): 173%; dose from which an anxiolytic action was detected / equally effective dose [3]: 1 mg/kg
21 | CN1C(=O)CN=C(c2ccccc2)c2cc(Cl)ccc21 [Diazepam, diazepam] | – | – | – | – | – | Changed number of impulses to the control in % ([3]; 0.1 mg/kg p.o.): 94%; Changed number of impulses to the control in % ([3]; 0.3 mg/kg p.o.): 114%; Changed number of impulses to the control in % ([3]; 1.0 mg/kg p.o.): 148%; Changed number of impulses to the control in % ([3]; 3 mg/kg p.o.): 167%
22 | O=C1C=C(N2CCOCC2)CN1c1ccccc1 [Compound 25, 4-morpholin-4-yl-1-phenyl-1,5-dihydropyrrol-2-one] | 66 | 40 | 161 to 164 | – | – | –
23 | O=C1C=C(N2CCCC2)CN1c1ccc(Cl)cc1 [Compound 17, 1-(4-chlorophenyl)-4-pyrrolidin-1-yl-1,5-dihydropyrrol-2-one] | – | – | 223 to 227 | 66 | 2.6 | responders at 300 mg/kg [1, 6]: 0%
24 | Cc1cccc(N2CC(N3CCOCC3)=CC2=O)c1 [Compound 2, 1-(3-methylphenyl)-4-morpholin-4-yl-1,5-dihydropyrrol-2-one] | – | 33 | – | – | 1.46 | responders at 300 mg/kg [1, 6]: 100%
25 | COc1cc(N2CC(N3CCOCC3)=CC2=O)cc(OC)c1OC [Compound 11, 4-morpholin-4-yl-1-(3,4,5-trimethoxyphenyl)-1,5-dihydropyrrol-2-one] | – | – | 179 to 182 | 0 | – | responders at 300 mg/kg [1, 6]: 66%
26 | COCCN(CCOC)C1=CC(=O)N(c2ccc(Cl)cc2)C1 [Compound 24, 1-(4-chlorophenyl)-4-(bis(methoxyethyl)amino)-1,5-dihydropyrrol-2-one] | – | – | 189 to 195 | 33 | – | responders at 300 mg/kg [1, 6]: 66%
27 | O=C1C=C(N2CCCCC2)CN1c1ccc(F)c(Cl)c1 [Compound 16, 1-(3-chloro-4-fluorophenyl)-4-piperidin-1-yl-1,5-dihydropyrrol-2-one] | – | – | 195 to 196 | 100 | – | responders at 300 mg/kg [1, 6]: 0%
